Activity calls are given as the source filed them. The calls are words filed in the database; no cut-off is given here.
Legend:
[1] = system: Rattus norvegicus; experiment: Reduction in plasma glucose level in Zucker diabetic fatty rat at 10 to 30 mg/kg, po administered 30 mins prior to challenge measured in 20 mins interval for 120 mins by oral glucose tolerance test relative to vehicle-treated control; assay type: functional; design: scale not given: the % may be the effect or the level left; settings: dose mg/kg 10-30
[2] = system: Rattus norvegicus; experiment: Reduction in plasma glucose level in Zucker diabetic fatty rat at 10 to 30 mg/kg, po administered 30 mins prior to challenge measured in 20 mins interval for 120 mins by oral glucose tolerance test relative to vehicle-treated control in presence of sitagliptin; assay type: functional; design: scale not given: the % may be the effect or the level left; settings: dose mg/kg 10-30
[3] = target: Cytochrome P450 2C19 (Homo sapiens, UniProt P33261); experiment: Inhibition of CYP2C19 (unknown origin); assay type: ADME
[4] = system: Rattus norvegicus; experiment: Volume of distribution at steady state in Sprague-Dawley rat at 2 mg/kg, iv and po; assay type: ADME, organism-based; design: dose 2 mg/kg, route oral; settings: in vivo
[5] = system: Rattus norvegicus; experiment: AUClast in Sprague-Dawley rat at 2 mg/kg, iv and po; assay type: ADME, organism-based, Plasma; design: dose 2 mg/kg, route oral; settings: in vivo
[6] = system: Rattus norvegicus; experiment: Clearance in Sprague-Dawley rat at 2 mg/kg, iv and po; assay type: ADME, organism-based; design: dose 2 mg/kg, route oral; settings: in vivo
[7] = system: Rattus norvegicus; experiment: Bioavailability in Sprague-Dawley rat at 2 mg/kg, iv and po; assay type: ADME, organism-based; settings: in vivo
[8] = target: Cytochrome P450 2C9 (Homo sapiens, UniProt P11712); experiment: Inhibition of CYP2C9 (unknown origin); assay type: ADME
[9] = Stability in dog hepatocytes assessed as compound remaining after 90 mins; assay type: ADME, cell-based, Canis lupus familiaris, Hepatocyte; settings: read-out: Stability
[10] = target: T1, Glucose-dependent insulinotropic receptor (Rattus norvegicus) (UniProt Q7TQN8); experiment: […] of rat GPR119 activity by homogeneous time resolved fluorescence cyclase (cAMP) assay relative to AR231453; assay type: functional
T1 sequence (whole entry): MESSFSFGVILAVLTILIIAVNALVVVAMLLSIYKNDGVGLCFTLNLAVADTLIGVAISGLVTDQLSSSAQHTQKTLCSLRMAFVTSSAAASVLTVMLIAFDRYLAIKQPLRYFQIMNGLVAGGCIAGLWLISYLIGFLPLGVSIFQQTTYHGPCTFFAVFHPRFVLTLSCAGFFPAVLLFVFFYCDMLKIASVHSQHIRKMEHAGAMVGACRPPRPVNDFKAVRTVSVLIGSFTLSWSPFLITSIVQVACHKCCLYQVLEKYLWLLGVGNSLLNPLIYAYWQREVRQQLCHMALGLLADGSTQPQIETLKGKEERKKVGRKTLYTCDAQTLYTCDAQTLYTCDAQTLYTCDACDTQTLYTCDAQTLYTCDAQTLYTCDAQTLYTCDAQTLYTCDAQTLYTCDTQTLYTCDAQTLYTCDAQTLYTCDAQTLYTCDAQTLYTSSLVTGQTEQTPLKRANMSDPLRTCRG

[11] = Elimination half life in Sprague-Dawley rat at 2 mg/kg, po; assay type: ADME, organism-based; design: dose 2 mg/kg, route oral; settings: in vivo, read-out: beta t1/2 (converted)
[12] = target: CYP2C9 (Homo sapiens, UniProt P11712); experiment: Ratio of APD597 IC50 to compound IC50 for CYP2C9 (unknown origin); assay type: ADME; settings: read-out: Ratio IC50
[13] = system: Mus musculus; experiment: Increase in GIP release in normoglycemic 129SVE mouse at 3 to 10 mg/kg, po measured after 45 mins; assay type: functional, organism-based
[14] = Efflux ratio of permeability in human Caco2 cells; assay type: ADME, cell-based; settings: Caco-2
[15] = Stability in monkey hepatocytes assessed as compound remaining after 90 mins; assay type: ADME, cell-based, Macaca mulatta, Hepatocyte; settings: rhesus monkey, read-out: Stability
[16] = target: T2, Glucose-dependent insulinotropic receptor (Rattus norvegicus, UniProt Q7TQN8); experiment: […] of rat GPR119 activity by homogeneous time resolved fluorescence cyclase (cAMP) assay; assay type: functional
T2 sequence (Q7TQN8 whole entry): T1 sequence (whole entry)

[17] = system: Mus musculus; experiment: Reduction in plasma glucose level in normoglycemic 129SVE mouse at 3 to 10 mg/kg, po administered 30 mins prior to challenge measured in 20 mins interval for 120 mins by oral glucose tolerance test relative to vehicle-treated control; assay type: functional; design: scale not given: the % may be the effect or the level left; settings: dose mg/kg 3-10
[18] = Stability in human hepatocytes assessed as compound remaining after 90 mins; assay type: ADME, cell-based, Hepatocyte; settings: read-out: Stability
[19] = target: T3, Glucose-dependent insulinotropic receptor (Homo sapiens) (UniProt Q8TDV5); experiment: […] of human GPR119 activity by homogeneous time resolved fluorescence cyclase (cAMP) assay relative to AR231453; assay type: functional
T3 sequence (whole entry): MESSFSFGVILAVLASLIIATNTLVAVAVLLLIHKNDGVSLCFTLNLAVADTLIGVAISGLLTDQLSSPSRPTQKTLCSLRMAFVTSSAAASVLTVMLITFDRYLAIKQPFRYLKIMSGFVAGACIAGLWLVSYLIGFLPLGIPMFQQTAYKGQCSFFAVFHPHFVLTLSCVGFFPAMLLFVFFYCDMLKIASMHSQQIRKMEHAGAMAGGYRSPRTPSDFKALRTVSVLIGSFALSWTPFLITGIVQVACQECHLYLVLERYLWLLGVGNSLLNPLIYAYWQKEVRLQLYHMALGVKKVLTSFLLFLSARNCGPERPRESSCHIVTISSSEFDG

[20] = target: Cytochrome P450 3A4 (Homo sapiens, UniProt P08684); experiment: Inhibition of CYP3A4 (unknown origin); assay type: ADME
[21] = Stability in rat hepatocytes assessed as compound remaining after 90 mins; assay type: ADME, cell-based, Hepatocyte; settings: read-out: Stability
[22] = target: T4, Cytochrome P450 1A2 (Homo sapiens, UniProt P05177); experiment: Inhibition of CYP1A2 (unknown origin); assay type: ADME
T4 sequence (P05177 whole entry): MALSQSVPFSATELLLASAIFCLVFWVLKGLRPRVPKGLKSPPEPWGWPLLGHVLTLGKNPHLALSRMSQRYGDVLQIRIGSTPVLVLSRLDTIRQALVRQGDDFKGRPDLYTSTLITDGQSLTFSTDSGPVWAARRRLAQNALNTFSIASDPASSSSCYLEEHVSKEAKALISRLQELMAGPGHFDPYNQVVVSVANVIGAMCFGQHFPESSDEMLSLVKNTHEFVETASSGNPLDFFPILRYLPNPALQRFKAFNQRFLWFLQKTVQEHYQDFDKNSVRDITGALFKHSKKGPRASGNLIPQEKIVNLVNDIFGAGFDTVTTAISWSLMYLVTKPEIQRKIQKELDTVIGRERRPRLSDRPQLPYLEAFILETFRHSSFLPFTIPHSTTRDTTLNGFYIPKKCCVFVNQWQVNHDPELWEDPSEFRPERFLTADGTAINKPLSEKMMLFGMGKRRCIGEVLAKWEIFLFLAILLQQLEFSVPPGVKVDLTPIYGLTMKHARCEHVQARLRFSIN

[23] = target: T5, Glucose-dependent insulinotropic receptor (Homo sapiens, UniProt Q8TDV5); experiment: […] of human GPR119 activity by homogeneous time resolved fluorescence cyclase (cAMP) assay; assay type: functional
T5 sequence (Q8TDV5 whole entry): T3 sequence (whole entry)

[24] = target: Cytochrome P450 2D6 (Homo sapiens, UniProt P10635); experiment: Inhibition of CYP2D6 (unknown origin); assay type: ADME
[25] = system: Rattus norvegicus; experiment: Reduction in plasma glucose level in Zucker diabetic fatty rat at 3 mg/kg, po administered 30 mins prior to challenge measured in 20 mins interval for 120 mins by oral glucose tolerance test relative to vehicle-treated control; assay type: functional; design: scale not given: the % may be the effect or the level left

Sequence of Cytochrome P450 2C19 (P33261 whole entry): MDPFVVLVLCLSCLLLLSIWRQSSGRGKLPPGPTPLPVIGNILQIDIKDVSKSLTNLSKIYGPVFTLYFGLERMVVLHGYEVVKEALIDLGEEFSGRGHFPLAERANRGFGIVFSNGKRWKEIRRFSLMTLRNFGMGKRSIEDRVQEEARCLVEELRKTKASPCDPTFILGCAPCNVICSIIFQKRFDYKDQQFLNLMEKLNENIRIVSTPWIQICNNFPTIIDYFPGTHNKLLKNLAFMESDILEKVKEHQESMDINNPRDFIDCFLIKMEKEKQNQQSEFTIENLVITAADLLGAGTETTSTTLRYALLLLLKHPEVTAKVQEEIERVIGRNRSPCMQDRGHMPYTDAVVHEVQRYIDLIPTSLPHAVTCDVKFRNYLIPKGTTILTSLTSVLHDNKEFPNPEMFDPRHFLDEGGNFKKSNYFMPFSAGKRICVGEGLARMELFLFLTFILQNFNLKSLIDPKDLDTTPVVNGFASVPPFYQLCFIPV
Sequence of CYP2C9 (P11712 whole entry): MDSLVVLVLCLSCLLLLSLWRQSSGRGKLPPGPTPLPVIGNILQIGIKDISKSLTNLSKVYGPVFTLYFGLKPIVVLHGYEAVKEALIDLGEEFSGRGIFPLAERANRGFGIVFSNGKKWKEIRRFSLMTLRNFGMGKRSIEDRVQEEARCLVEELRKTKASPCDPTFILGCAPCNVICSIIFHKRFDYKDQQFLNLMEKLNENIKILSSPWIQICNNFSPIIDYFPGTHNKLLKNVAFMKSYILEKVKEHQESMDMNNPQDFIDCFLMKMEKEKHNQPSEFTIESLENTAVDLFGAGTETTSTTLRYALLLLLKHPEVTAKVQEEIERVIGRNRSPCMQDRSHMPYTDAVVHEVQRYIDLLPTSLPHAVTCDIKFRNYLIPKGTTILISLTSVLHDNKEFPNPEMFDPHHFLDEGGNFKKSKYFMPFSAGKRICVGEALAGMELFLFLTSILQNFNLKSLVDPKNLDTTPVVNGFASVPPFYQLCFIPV
Sequence of Cytochrome P450 2C9 (P11712 whole entry): as above
Sequence of Cytochrome P450 2D6 (P10635 whole entry): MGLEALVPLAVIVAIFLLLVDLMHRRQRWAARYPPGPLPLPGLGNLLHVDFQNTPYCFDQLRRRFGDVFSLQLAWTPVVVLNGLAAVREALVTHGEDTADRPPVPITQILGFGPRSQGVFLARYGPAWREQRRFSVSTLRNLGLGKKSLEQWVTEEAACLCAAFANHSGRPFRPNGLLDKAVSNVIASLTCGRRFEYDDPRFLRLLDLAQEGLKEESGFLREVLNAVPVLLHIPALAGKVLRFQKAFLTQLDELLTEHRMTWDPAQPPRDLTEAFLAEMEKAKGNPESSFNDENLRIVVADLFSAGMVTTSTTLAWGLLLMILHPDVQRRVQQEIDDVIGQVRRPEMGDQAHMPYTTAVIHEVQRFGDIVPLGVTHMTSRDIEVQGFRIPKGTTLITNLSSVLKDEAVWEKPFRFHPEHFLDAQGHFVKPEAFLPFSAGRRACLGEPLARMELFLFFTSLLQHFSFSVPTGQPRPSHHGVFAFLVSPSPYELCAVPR
Sequence of Cytochrome P450 3A4 (P08684 whole entry): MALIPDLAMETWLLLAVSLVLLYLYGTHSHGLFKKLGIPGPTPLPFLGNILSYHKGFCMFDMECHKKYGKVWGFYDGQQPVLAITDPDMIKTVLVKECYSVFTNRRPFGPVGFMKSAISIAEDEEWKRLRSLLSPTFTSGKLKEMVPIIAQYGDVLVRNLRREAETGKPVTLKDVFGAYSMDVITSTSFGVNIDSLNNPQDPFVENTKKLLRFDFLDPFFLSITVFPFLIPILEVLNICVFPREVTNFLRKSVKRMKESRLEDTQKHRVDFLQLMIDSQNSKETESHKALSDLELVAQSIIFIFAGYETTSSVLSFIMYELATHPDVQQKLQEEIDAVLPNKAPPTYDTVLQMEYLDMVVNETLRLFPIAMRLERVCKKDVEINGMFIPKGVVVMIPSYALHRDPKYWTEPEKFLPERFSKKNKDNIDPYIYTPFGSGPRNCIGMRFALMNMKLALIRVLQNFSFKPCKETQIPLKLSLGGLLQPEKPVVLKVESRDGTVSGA

Q: Which Activity [1] does the source give for `Cc1nc(S(C)(=O)=O)ccc1Oc1ncnc(OC2CCN(C(=O)OC3(C)CC3)CC2)c1F` here?
A: 50%

Q: What about the Activity [2] of the same compound?
A: 70%

Q: And the IC50 [3]?
A: 23.4 µM

Q: What about the Vdss [4] of the same compound?
A: 2.91 L/kg

Q: What about the AUClast [5] of the same compound?
A: 1220 ng·h/mL

Q: And the CL [6]?
A: 1.19 L/kg/h

Q: What about the F [7] of the same compound?
A: 72.7%

Q: And the IC50 [8]?
A: 25.7 µM

Q: What about the remaining at 1.5 h [9] of the same compound?
A: 89%

Q: And the Efficacy [10]?
A: 93%

Q: And the half-life [11]?
A: 163 min

Q: And the selectivity ratio [12]?
A: 4

Q: And the Activity [13]?
A: Active

Q: And the efflux ratio [14]?
A: 1

Q: And the remaining at 1.5 h [15]?
A: 50%

Q: And the EC50 [16]?
A: 169 nM

Q: What about the Activity [17] of the same compound?
A: 35%

Q: And the remaining at 1.5 h [18]?
A: 100%

Q: What about the Efficacy [19] of the same compound?
A: 94%

Q: What about the “inhibition (INH)” value [20] of the same compound?
A: Not Active

Q: What about the remaining at 1.5 h [21] of the same compound?
A: 51%

Q: And the “inhibition (INH)” value [22]?
A: Not Active

Q: What about the EC50 [23] of the same compound?
A: 13.8 nM

Q: What about the “inhibition (INH)” value [24] of the same compound?
A: Not Active

Q: With `N[C@@H](CC(=O)N1CCn2c(nnc2C(F)(F)F)C1)Cc1cc(F)c(F)cc1F` [SITAGLIPTIN] as the compound, how does the Activity [25] read?
A: 70%
